Tested on: cerebral cortical mixed neuronal cells
Test: Oxygen glucose deprivation (OGD) in cerebral cortical mixed neuronal cultures
Format: cell-based, rat
Details: for frequency distribution of pyknotic vs non-pyknotic nuclei (nuclear size peak) after OGD: 500 nM, DIV 12, 90 min OGD, Hoechst; for neuroprotection compared to OGD alone (Hoechst-positive nuclei, calcein-positive cell counting or MTT): 90 mins OGD, added after 2 h of reoxygenation at 200 nM, 500 nM or 1 μM, cortical mixed or hippocampal neurons; for neuroprotection after OGD by VLC-PUFA precursor: 250 nM, added after OGD exposure
Excerpt: Primary cultures of cortical neurons: Primary cultures of cortical and hippocampal neurons were harvested from 18-day-old embryos (E18) taken from timed-pregnant, two-month-old Sprague-Dawley (SD) rats (Charles River Lab., Wilmington, Mass.). Briefly, timed-pregnant SD rats were euthanized and embryos were collected in sterile conditions. Embryonic brains were dissected out by forceps on ice and placed in a petri dish containing ice-cold Hank's Balanced Salt Solution (HBSS) (GIBCO). Meninges were removed under a dissecting microscope and cortical tissues were chopped into small pieces with micro-spring scissors. These tissues were transferred to 15 ml tubes containing trypsin-EDTA (0.025% in HBSS) and DNase I. The tubes were incubated in 37° C. chamber for 15 mins and were agitated every 5 mins. After stopping the trypsinization with 5 ml 10% FBS, these tissues were triturated 15 times with a fire polished Pasteur pipet. Cell clumps were left to settle for 2 mins and the supernatant was transferred to a 15 ml Eppendorf tube. The supernatant was filtered through a 70 μm pore-sized filter (Corning cell strainer) and centrifuged for 5 mins at 1000 rpm. The cells were then resuspended in Neurobasal medium (GIBCO) containing 2% B27 (GIBCO) and 2% N2 (GIBCO) supplements, along with 0.5 mM glutamine, 50 U/ml penicillin/streptomycin.
Cells were counted using a Neubauer hemocytometer. 1×10^6 cells were seeded on poly-D-lysine-coated 12 well cell culture dish (CORNING) and cultured in incubator (37° C., 5% CO2). Culture medium was first replaced after 24 h, then half of the medium was replaced with fresh medium every three days. As a result, approximately, 90% purity of neurons was obtained as determined by class-III-β tubulin, GFAP and Hoechst 33258 staining. Cells were maintained in culture for about 2 weeks until they were exposed to uncompensated oxidative stress, OGD, or NMDA excitotoxicity.
Oxygen glucose deprivation (OGD), NMDA excitotoxicity or uncompensated oxidative stress (UOS) exposure: An in vitro oxygen glucose deprivation (OGD) model was established. Primary cortical neurons were cultured from SD rat embryos. On day in vitro (DIV) 12, cells were washed with phosphate-buffered saline and incubated in glucose-free Neurobasal medium (GIBCO) for 30 mins. The cells were then placed in a modular incubator chamber and incubated in an anaerobic chamber (95% N2, 5% CO2) at 37° C. for 90 mins for OGD.
After 90 mins of OGD exposure, cells were returned to the original medium (Neurobasal medium (GIBCO) containing 2% B27 (GIBCO) and 2% N2 (GIBCO) supplements, along with 0.5 mM glutamine, 50 U/ml penicillin/streptomycin) and placed in a normoxic chamber (37° C., 5% CO2) for 2 h. Then the medium was changed with medium containing either ELV-N32 or ELV-N34 [500 nM] and maintained in a normoxic chamber (37° C., 5% CO2) for 12 h, after which cells were sampled and assayed for cell viability using different methods as previously described (25-28). Cerebral cortical mixed neuronal cells or hippocampal cells in culture were exposed to either NMDA or uncompensated oxidative stress (UOS) for 12 h by addition of either NMDA (25 μM, 50 μM, or 100 μM) concentration or by the addition of TNFα (10 ng/mL) and H2O2 (50 μM, 100 μM, or 200 μM). Cell viability and neuroprotection in the presence of ELV-N32, ELV-N34, 32:6, or 34:6 were assayed after 12 h.
Hoechst staining and unbiased image analysis: Cells were washed with 1× Dulbecco's Phosphate Buffered Saline (DPBS) containing no calcium or magnesium (GIBCO) and fixed for 10 mins using ice-cold 4% paraformaldehyde (PFA) followed by 15 mins incubation in 100% methanol. Cells were washed with 1× Phosphate Buffered Saline (PBS) pH 7.4 (GIBCO) and incubated in PBS containing 20 μM Hoechst 33258 (Molecular Probes) for 20 mins. Cells were then washed 3 times with 1× PBS and stored in 1× PBS at 4° C. until they were imaged for microscopy. […]

Compound | frequency distribution of pyknotic vs non-pyknotic nuclei (nuclear size peak) after OGD | neuroprotection compared to OGD alone (Hoechst-positive nuclei, calcein-positive cell counting or MTT) | also measured
CC/C=C\C[C@H](O)\C=C/C=C/C=C/[C@H](O)C/C=C\C/C=C\CCCCCCCCCCCCCCC(=O)OC [ELV-N34-Me, methyl (16Z,19Z,22R,23E,25E,27Z,29S,31Z)-22,29-dihydroxytetratriaconta-16,19,23,25,27,31-hexaenoate] | positive rightward shift | elicited neuroprotection | 
CC/C=C\C[C@H](O)\C=C/C=C/C=C/[C@H](O)C/C=C\C/C=C\CCCCCCCCCCCCC(=O)[O-].[Na+] [ELV-N32-Na, sodium (14Z,17Z,20R,21E,23E,25Z,27S,29Z)-20,27-dihydroxydotriaconta-14,17,21,23,25,29-hexaenoate] | positive rightward shift | elicited neuroprotection | 
CC/C=C\C[C@H](O)\C=C/C=C/C=C/[C@H](O)C/C=C\C/C=C\CCCCCCCCCCCCCCC(=O)[O-].[Na+] [ELV-N34-Na, sodium (16Z,19Z,22R,23E,25E,27Z,29S,31Z)-22,29-dihydroxytetratriaconta-16,19,23,25,27,31-hexaenoate] |  | elicited neuroprotection | 
CC/C=C\C/C=C\C/C=C\C/C=C\C/C=C\C/C=C\CCCCCCCCCCCCC(=O)O [32:6n3, (14Z,17Z,20Z,23Z,26Z,29Z)-dotriaconta-14,17,20,23,26,29-hexaenoic acid] |  |  | neuroprotection after OGD by VLC-PUFA precursor: provide neuroprotection
CC/C=C\C/C=C\C/C=C\C/C=C\C/C=C\C/C=C\CCCCCCCCCCCCCCC(=O)O [34:6n3, (16Z,19Z,22Z,25Z,28Z,31Z)-tetratriaconta-16,19,22,25,28,31-hexaenoic acid] |  |  | neuroprotection after OGD by VLC-PUFA precursor (listed as 34:6): elicit neuroprotection
CC/C=C\C[C@H](O)\C=C/C=C/C=C/[C@H](O)C/C=C\C/C=C\CCCCCCCCCCCCC(=O)OC [ELV-N32-Me, methyl (14Z,17Z,20R,21E,23E,25Z,27S,29Z)-20,27-dihydroxydotriaconta-14,17,21,23,25,29-hexaenoate] |  | elicited neuroprotection | 

From US20220226270A1, “VERY-LONG-CHAIN POLYUNSATURATED FATTY ACIDS, ELOVANOID HYDROXYLATED DERIVATIVES, AND METHODS OF USE” (Board of Supervisors of Louisiana State University and …, priority 2019, published 2022)
